pKi: −log10 of the molar value. Counter-ions that a name gives are not always drawn. Blank lines part the entries; values can stand above or below the compound they belong to. The source made the active and inactive calls. The rule behind the calls is not given here.
Columns and labels:
Carbonic anhydrase 1 = Carbonic anhydrase 1 (Homo sapiens, UniProt P00915); assay: Inhibition of human CA1 pre-incubated for 15 mins by stopped-flow CO2 hydration method
Carbonic anhydrase 2 = Carbonic anhydrase 2 (Homo sapiens, UniProt P00918); assay: Inhibition of human CA2 pre-incubated for 15 mins by stopped-flow CO2 hydration method
Carbonic anhydrase 9 = Carbonic anhydrase 9 (Homo sapiens, UniProt Q16790); assay: Inhibition of human CA9 pre-incubated for 15 mins by stopped-flow CO2 hydration method
Carbonic anhydrase 12 = Carbonic anhydrase 12 (Homo sapiens, UniProt O43570); assay: Inhibition of human CA12 pre-incubated for 15 mins by stopped-flow CO2 hydration method
Oryctolagus cuniculus [1] = assay: Antiglaucoma activity in carbomer-induced glaucoma in albino rabbit assessed as reduction in intra ocular pressure dosed as 2% compound solution measured 3 to 4 hrs post dose; format: functional, organism-based; details: Eye
Oryctolagus cuniculus [2] = assay: Antiglaucoma activity in carbomer-induced glaucoma in albino rabbit assessed as reduction in intra ocular pressure dosed as 2% compound solution measured 2 hrs post dose (vehicle treated contralateral eye Rvb = 37 to 40 mmHg); format: functional
Oryctolagus cuniculus [3] = assay: Antiglaucoma activity in carbomer-induced glaucoma in albino rabbit assessed as reduction in intra ocular pressure dosed as 2% compound solution; format: functional, organism-based; details: Eye, TDE = time-dependent effect
Oryctolagus cuniculus [4] = assay: Antiglaucoma activity in carbomer-induced glaucoma in albino rabbit assessed as reduction in intra ocular pressure dosed as 2% compound solution measured 2 hrs post dose (vehicle treated contralateral eye Rvb = 37 to 39 mmHg); format: functional

Sequence of Carbonic anhydrase 12 (O43570 whole entry): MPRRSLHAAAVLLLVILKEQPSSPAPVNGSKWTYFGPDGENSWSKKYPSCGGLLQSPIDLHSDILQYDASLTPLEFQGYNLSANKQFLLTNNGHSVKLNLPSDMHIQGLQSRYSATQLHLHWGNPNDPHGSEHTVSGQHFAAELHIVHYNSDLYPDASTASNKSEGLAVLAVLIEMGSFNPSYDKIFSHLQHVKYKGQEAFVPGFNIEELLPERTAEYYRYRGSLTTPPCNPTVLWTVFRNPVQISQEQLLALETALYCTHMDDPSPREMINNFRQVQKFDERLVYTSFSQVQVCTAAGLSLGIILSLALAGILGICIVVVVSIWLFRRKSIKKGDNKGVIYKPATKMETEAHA
Sequence of Carbonic anhydrase 1 (P00915 whole entry): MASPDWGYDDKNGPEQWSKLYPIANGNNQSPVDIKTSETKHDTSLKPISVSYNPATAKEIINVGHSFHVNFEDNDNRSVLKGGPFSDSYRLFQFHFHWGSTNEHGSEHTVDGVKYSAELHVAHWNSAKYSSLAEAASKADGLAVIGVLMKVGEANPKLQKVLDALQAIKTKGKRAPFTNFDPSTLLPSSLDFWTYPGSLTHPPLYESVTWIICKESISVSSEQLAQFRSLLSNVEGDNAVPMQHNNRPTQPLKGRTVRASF

Compound: S=C(S)N1CCCC1
pKi (Carbonic anhydrase 1): 9.02
pKi (Carbonic anhydrase 2): 7.56
pKi (Carbonic anhydrase 9): 7.15
pKi (Carbonic anhydrase 12): 7.34

Compound: CN1CCN(NC(=S)S)CC1
pKi (Carbonic anhydrase 9): 7.66

Compound: S=C(S)NCCN1CCOCC1
pKi (Carbonic anhydrase 9): 8.35

Compound: S=C(S)NCCN(CCNC(=S)S)CCNC(=S)S
pKi (Carbonic anhydrase 9): 7.56

Compound: S=C(S)NCc1ccncc1
pKi (Carbonic anhydrase 9): 7.59

Compound: S=C(S)NCCN1CCCCC1
pKi (Carbonic anhydrase 9): 8.44

Compound: S=C(S)Nc1nccs1
pKi (Carbonic anhydrase 9): 7.90

Compound: O=C(O)CNC(=S)S
pKi (Carbonic anhydrase 9): 7.24

Compound: S=C(S)NCCCn1ccnc1
pKi (Carbonic anhydrase 9): 8.37

Compound: N#CC1(c2ccccc2)CCN(C(=S)S)CC1
pKi (Carbonic anhydrase 9): 6.12

Compound: CCN(CC)C(=S)S [DITIOCARB SODIUM]
pKi (Carbonic anhydrase 9): 5.85
pKi (Carbonic anhydrase 12): 5.96

Compound: S=C([S-])N1CCOCC1.[Na+] [MORPHOLINECARBAMODITHIOATE SODIUM SALT]
pKi (Carbonic anhydrase 9): 8.21
Activity (Oryctolagus cuniculus [1]): Active
Activity (Oryctolagus cuniculus [2]): 6 mmHg
Activity (Oryctolagus cuniculus [3]): tde

Compound: CN(Cc1ccccc1)C(=S)S [SODIUM BENZYL(METHYL)CARBAMODITHIOATE]
pKi (Carbonic anhydrase 9): 7.28

Compound: S=C(S)NCc1ccccc1 [SODIUM BENZYLCARBAMODITHIOATE]
pKi (Carbonic anhydrase 9): 7.72

Compound: CN(C)C(=S)S [SODIUM DIMETHYLCARBAMODITHIOATE]
pKi (Carbonic anhydrase 1): 6.16
pKi (Carbonic anhydrase 2): 5.16
pKi (Carbonic anhydrase 9): 6.15
pKi (Carbonic anhydrase 12): 6.10

More lines, main results first:

pKi (Carbonic anhydrase 9): 8.37
Compound: OCCN(CCO)C(=S)S

pKi (Carbonic anhydrase 9): 8.39
Compound: O=C(O)[C@@H]1CCCN1C(=S)S

pKi (Carbonic anhydrase 9): 8.34
Compound: CCC(C)NC(=S)S (racemic)

pKi (Carbonic anhydrase 9): 7.30
Compound: CCCCN(CCCC)C(=S)S [DIBUTYLCARBAMODITHIOATE SODIUM SALT]

pKi (Carbonic anhydrase 9): 7.56
Compound: CCCCCCN(CCCCCC)C(=S)S [DIHEXYLCARBAMODITHIOATE SODIUM SALT]

pKi (Carbonic anhydrase 9): 8.35
Compound: CC(C)CN(CC(C)C)C(=S)S [DIISOBUTYLCARBODITHIOIC ACID SODIUM SALT]

pKi (Carbonic anhydrase 9): 7.27
Compound: CCCN(CCC)C(=S)S [DIPROPYLCARBAMODITHIOATE SODIUM SALT]

pKi (Carbonic anhydrase 9): 7.59
Compound: CCCCN(CC)C(=S)S [ETHYLBUTYLCARBAMODITHIOATE SODIUM SALT]

pKi (Carbonic anhydrase 9): 7.43
Compound: S=C([S-])N1CCN(C(=S)[S-])CC1.[Na+].[Na+] [PIPERAZINECARBAMODITHIOATE DISODIUM SALT]
Activity (Oryctolagus cuniculus [4]): 6 mmHg
Activity (Oryctolagus cuniculus [1]): Active
Activity (Oryctolagus cuniculus [3]): tde

pKi (Carbonic anhydrase 9): 7.54
Compound: S=C(S)NN1CCOCC1 [POTASSIUM MORPHOLINOCARBAMODITHIOATE]

pKi (Carbonic anhydrase 9): 7.55
Compound: CN(C(=S)S)c1ccccc1 [SODIUM METHYL(PHENYL)CARBAMODITHIOATE]

pKi (Carbonic anhydrase 9): 8.38
Compound: S=C(S)Nc1ccccc1 [TRIETHYLAMMONIUM PHENYLCARBAMODITHIOATE]

From ChEMBL document CHEMBL2021877, “Dithiocarbamates strongly inhibit carbonic anhydrases and show antiglaucoma action in vivo” (J Med Chem, 2012)
